Data set [1] concerns the target T1, UGT78G1 (Medicago truncatula, UniProt A6XNC6).
T1 sequence (A6XNC6 1-454): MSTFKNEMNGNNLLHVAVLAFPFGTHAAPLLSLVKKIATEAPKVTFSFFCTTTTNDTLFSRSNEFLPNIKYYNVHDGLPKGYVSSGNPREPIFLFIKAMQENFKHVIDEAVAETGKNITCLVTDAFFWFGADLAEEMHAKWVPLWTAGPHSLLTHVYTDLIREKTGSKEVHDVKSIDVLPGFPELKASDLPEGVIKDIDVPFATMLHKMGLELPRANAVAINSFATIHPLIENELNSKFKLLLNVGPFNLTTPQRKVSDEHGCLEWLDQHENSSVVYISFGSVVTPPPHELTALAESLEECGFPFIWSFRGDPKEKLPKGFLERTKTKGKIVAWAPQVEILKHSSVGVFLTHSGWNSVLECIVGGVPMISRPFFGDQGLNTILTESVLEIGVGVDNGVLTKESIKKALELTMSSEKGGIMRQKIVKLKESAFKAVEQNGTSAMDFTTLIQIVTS
Kind of data set: Kinetic analysis of UGT78G1 (GT83F) with (iso)flavonoid acceptor substrates, UDP-[14C]-glucose donor. The conditions noted are these: for Kcat/Km ratio: unit not given; for Kcat / Km / Vmax: recombinant UGT78G1, donor UDP-glucose, 30° C., pH 7.0; for Vmax compared with that for most of the other substrates / substrate quality for UGT78G1 in vitro: in words. As for the experimental part:
The PCR product was purified, ligated to pGEMTeasy vector (Promega, Madison, Wis., USA), sequenced, excised and re-cloned between the BamHI and NotI sites of pET28a(+) (Novagen, Madison, Wis., USA) with a hexahistidine tag and a thrombin cleavage site. E. coli BL21 (DE3) cells harboring the expression construct were grown to an OD600 of 0.4-0.5, and expression was initiated by addition of isopropyl 1-thio-β-D-galactopyranoside (IPTG) at a final concentration of 0.2 mM, with further incubation with shaking overnight at 16° C. The enzyme was purified from E. coli lysates by nickel affinity chromatography.
Reactions were stopped with TCA after 15 min incubation at 30° C. Samples were extracted with 250 μl of ethyl acetate, and 200 μl were taken for liquid scintillation counting (Beckman LS6500). Data were analyzed using Hyper32 software for the analysis of enzyme-kinetic data (J. S. Easterby, University of Liverpool, Liverpool, UK; available at www.liv.ac.uk/˜jse/software.html).

Data set [2] addresses T1, UGT78G1. Briefly: UGT78G1 enzyme reactions with acceptor substrates, products analyzed by HPLC. The data set is classed as biochemical. Set-up: hexahistidine tag with thrombin cleavage site (pET28a(+)) (N); made in house; host or cells: E. coli BL21 (DE3). The source says:
Reactions were stopped with TCA and products analyzed by HPLC as described above.

Data set [3] deals with T1, UGT78G1. Details: hexahistidine tag with thrombin cleavage site (pET28a(+)) (N); made in house; host or cells: E. coli BL21 (DE3). The conditions noted are these: in vitro (Modolo et al, 2007); cited from earlier work.
Substrate in data set [4]: O=c1c(-c2ccc(O)cc2)coc2cc(O)cc(O)c12
Kind of data set: purified protein, by the assay type. The conditions noted are these: other: recombinant UGT78G1, donor UDP-glucose, 30° C., pH 7.0.

Substrate in data set [5]: O=c1c(O)c(-c2ccc(O)c(O)c2)oc2cc(O)cc(O)c12
Kind of data set: purified protein, by the assay type. To be noted: other: recombinant UGT78G1, donor UDP-glucose, 30° C., pH 7.0.

Substrate in data set [6]: O=c1c(O)c(-c2ccc(O)cc2)oc2cc(O)cc(O)c12
Briefly: purified protein, by the assay type. The conditions noted are these: other: recombinant UGT78G1, donor UDP-glucose, 30° C., pH 7.0.

Substrate in data set [7]: O=c1cc(-c2ccc(O)cc2)oc2cc(O)cc(O)c12
Kind of data set: purified protein, by the assay type. To be noted: other: recombinant UGT78G1, donor UDP-glucose, 30° C., pH 7.0.

For the molecule `O=c1cc(-c2ccc(O)cc2)oc2cc(O)cc(O)c12` [apigenin], on UGT78G1 [1], the Kcat/Km ratio was 1,534. For the same molecule, the “position of glycosylation by UGT78G1” value on UGT78G1 [2] is on record as 7-O-position.

In general, Km refers to the concentration of substrate that gives half-maximal velocity. By Vmax is commonly meant the rate approached at saturating substrate. For the molecule `COc1ccc(-c2coc3cc(O)cc(O)c3c2=O)cc1` [biochanin A (4′-methoxy genistein)], on UGT78G1 [1], the Kcat stood at 0.012 s⁻¹, the Km stood at 11.7 µM and the Vmax is 0.3666 µmol/min. The “position of glycosylation by UGT78G1” value at UGT78G1 [2] is 7-O-position.

`O=c1c(-c2ccc(O)cc2)coc2cc(O)ccc12` [daidzein]: the Michaelis-Menten constant (Km) on UGT78G1 [1] came out at 1.6 µM.

In the case of `COc1ccc(-c2coc3cc(O)ccc3c2=O)cc1` [formononetin], at UGT78G1 [1], the Kcat turned out to be 0.0029 s⁻¹, the Km was found to be 1.5 µM and the Vmax worked out at 0.0879 µmol/min. In addition, on UGT78G1 [1] (relative to daidzein), the “preference (Kcat/Km) for formononetin over daidzein” value is given as “about 2 fold”. Further, the “position of glycosylation by UGT78G1” value on UGT78G1 [2] is recorded as 7-O-position.

Consider `O=c1c(-c2ccc(O)cc2)coc2cc(O)cc(O)c12` [genistein], for which, at UGT78G1 [1], the Kcat was found to be 0.004 s⁻¹, the Vmax was found to be 1.2050 µmol/min and the Kcat/Km ratio is 1,098. Moreover, the “Km of genistein relative to Km of daidzein” value at UGT78G1 [1] (relative to daidzein) stood at 23 fold. The “position of glycosylation by UGT78G1” value on UGT78G1 [2] is 7-O-position.

Regarding `O=c1c(O)c(-c2ccc(O)cc2)oc2cc(O)cc(O)c12` [kaempferol], at UGT78G1 [1], the “Vmax compared with that for most of the other substrates” value is reported as “much higher”, the Kcat came out at 0.053 s⁻¹ and the Vmax came to 1.5830 µmol/min. The “position of glycosylation by UGT78G1” value on UGT78G1 [2] was 3-position.

Take `Oc1ccc(-c2[o+]c3cc(O)cc(O)c3cc2O)cc1` [pelargonidin]: on UGT78G1 [1], the “substrate quality for UGT78G1 in vitro” value was “relatively poor substrates”, the Kcat turned out to be 0.0057 s⁻¹, the Km is 71.8 µM and the Vmax stood at 0.1698 µmol/min. Besides, the “activity of UGT78G1 with substrate” value on UGT78G1 [3] is reported as “shows activity”.

Take `O=c1c(O)c(-c2ccc(O)c(O)c2)oc2cc(O)cc(O)c12` [quercetin]: at UGT78G1 [1], the “Vmax compared with that for most of the other substrates” value was “much higher”, the Kcat was 0.029 s⁻¹ and the Vmax was found to be 0.8557 µmol/min. Also, the “position of glycosylation by UGT78G1” value on UGT78G1 [2] was 3-position.

As to cyanidin, at UGT78G1 [1], the “substrate quality for UGT78G1 in vitro” value is “relatively poor substrates”, the Kcat came out at 0.0068 s⁻¹, the Km is 52 µM and the Vmax was 0.2025 µmol/min. Further, the “activity of UGT78G1 with substrate” value at UGT78G1 [3] is on record as “shows activity”.

B1: UGT78G1 (Medicago truncatula) (protein)
chain: T1 sequence (A6XNC6 1-454)
The term kcat denotes the number of substrate molecules converted per active site and unit of time at saturation. One may read the kcat/Km as the second-order rate constant that governs catalysis at low substrate concentration. As to B1, the Km in data set [4] worked out at 36.7 µM. The Km in data set [5] came out at 28.7 µM. The Km in data set [6] worked out at 89.8 µM. Also, in data set [7], the Km was found to be 1.5 µM, the maximum rate (Vmax) was found to be 0.0688 µmol/min, the kcat came to 0.0023 s⁻¹ and the kcat/Km came to 1530 M⁻¹ s⁻¹.

(Values after patent US7880059B2, “Production of proanthocyanidins to improve forage quality” (The Samuel Roberts Noble Foundation, priority 2007, dated 2011).)
